Measurements as given in ChEMBL document CHEMBL5303711, “ECBD screening data for assay EOS300108” (2023).
Counter-ions that a name gives are not always drawn. The source made the active and inactive calls. How the calls were made is not given here.

Assay: Cytotoxicity activity against human HepG2 cells assessed by CellTiter-Glo luminescent cell viability assay.
Type: toxicity, cell-based
Set-up: assay stage confirmatory assay, source tissue liver
Conditions: HepG2 cells, read-out: IC50 relative

Row | SMILES | CC50
1 | COc1ccc(OCCN2CCN(C(=O)c3ccc(OCc4cn5ccccc5n4)cc3)CC2)cc1 | 4.3 µM (active)
2 | CCc1ccc(-c2cc3c(=O)n(CC(=O)NCCCN4CCCC4)nc(C)n3n2)cc1 | 11.4 µM (active)
3 | Cc1nn2c(ncc3c(=O)n(CCN(C)C)ccc32)c1-c1ccc(Cl)cc1 | 4 µM (active)
4 | CCCCCCCCc1ccc(CCC(N)(CO)CO)cc1 [FINGOLIMOD HYDROCHLORIDE] | 1.4 µM (active)
5 | CN(C)S(=O)(=O)c1ccc2oc(SCCOc3ccccc3)nc2c1 | 10 µM (active)
6 | O=C(Nc1cc(Oc2cc(F)c(NC(=O)C3(C(=O)Nc4ccc(F)cc4)CC3)cc2F)ccn1)C1CC1 [ALTIRATINIB] | 0.2 µM (active)
7 | c1ccc2c(NCCCCCCNc3c4c(nc5ccccc35)CCCC4)c3c(nc2c1)CCCC3 | 1.2 µM (active)
8 | CC(C)N1CCN(Cc2cnc(-c3cc(-c4cccc5[nH]ccc45)cc4[nH]ncc34)o2)CC1 [NEMIRALISIB] | 4.4 µM (active)
9 | COc1cc(F)ccc1NC(=O)c1ccc(-c2ccccn2)[nH]c1=O | 11 µM (active)
10 | CCOC(=O)CCNc1cc(N2CCc3ccccc3CC2)nc(-c2ccccn2)n1 | 7.5 µM (active)
11 | C[C@@H](Oc1ccc2[nH]nc(/C=C/c3cnn(CCO)c3)c2c1)c1c(Cl)cncc1Cl [LY-2874455] | 0.7 µM (active)
12 | O=C(Nc1nc(-c2cccnc2)cs1)c1ccccn1 | 11.6 µM (active)
13 | Cc1ccccc1Oc1ccnc(CNC(=O)c2nccn2C)c1 | 1.1 µM (active)
14 | Fc1cccc(N2CCCC2)c1CNc1nccc(N[C@H]2CCCOC2)n1 | 6.5 µM (active)
15 | Cc1ccnc(NC(=O)c2csc(Cl)c2)n1 | 4.8 µM (active)
16 | CCc1cccc(NC(=O)Nc2ccc3c(c2)N(S(C)(=O)=O)CC3)c1 | 2.9 µM (active)
17 | COc1ccc(NC(=O)Nc2ccc3c(c2)N(S(C)(=O)=O)CC3)cc1Cl | 10.5 µM (inactive)
18 | COc1ccc(-c2c[nH]c3nccc(-c4ccsc4)c23)c(OC)c1 | 7.9 µM (active)
19 | CNCCC(Oc1ccc(C(F)(F)F)cc1)c1ccccc1 (stereo not given) [FLUOXETINE HYDROCHLORIDE] | 6.6 µM (active)
20 | CN(C)CCNC(=O)c1ccc2c(c1)n(Cc1cccc(F)c1)c(=O)c1ccnn12 | 12.7 µM (active)
21 | CNc1nc(NCc2ccc(NS(C)(=O)=O)cc2Cl)cc(-c2ccccn2)n1 | 14.3 µM (inactive)
22 | NC1CCN(S(=O)(=O)c2ccc([C@H]3[C@@H]4CCCC[C@@H]43)cc2)CC1 | 12 µM (active)
23 | CCC[C@H](NCc1csc(N(C)C)n1)c1ncccc1Cl | 11.1 µM (active)

Row | SMILES | CC50
24 | O=C(Nc1cccc(Cl)c1O)c1sccc1Br | 0.8 µM (active)
25 | N#CCCn1c(=O)c(C(=O)NCCCc2ccccc2)c(O)c2ccccc21 | 5.9 µM (active)
26 | Cn1ccc(C(=O)Nc2cc(F)ccc2-n2cccn2)cc1=O | 1.1 µM (inactive)
27 | COc1cc2c(NC3CCN(C(C)C)CC3)nc(C3CCCCC3)nc2cc1OCCCN1CCCC1 | 2.4 µM (active)
28 | COc1ccc(-c2nc(CN3CCN(C(=O)c4ccc5c(c4)OCO5)CC3)cs2)cc1 | 7.8 µM (active)
29 | COc1cc(OC)cc(N(CCNC(C)C)c2ccc3ncc(-c4cnn(C)c4)nc3c2)c1 [ERDAFITINIB] | 3.9 µM (active)
30 | COc1ccc(Nc2nc(NCCCO)c3ccccc3n2)cc1 | 8.2 µM (active)
31 | COC(=O)N[C@@H](C)CNc1nccc(-c2cn(C(C)C)nc2-c2cc(Cl)cc(NS(C)(=O)=O)c2F)n1 [ENCORAFENIB] | 0.9 µM (active)
32 | CN(C)c1ccnc(NCCc2cc(F)cc3c2OCOC3)n1 | 10.2 µM (active)
33 | CC(C)N1CC(CN)C2(CCCCC2)C1 (stereo not given) | 11.6 µM (active)
34 | O=C(Nc1ncc(-c2ccccc2)s1)c1ccccn1 | 2.3 µM (active)
35 | Cn1c(C#N)ccc1-c1ccc2c(c1)C(C)(C)OC(=S)N2 [TANAPROGET] | 4.6 µM (active)
36 | CN[C@@H](C)C(=O)N[C@H](C(=O)N1CCC[C@H]1c1nc(C(=O)c2ccc(F)cc2)cs1)C1CCCCC1 [LCL-161] | 6.8 µM (active)
37 | CS(=O)(=O)c1ncc(Br)c(C(=O)Nc2ccc(F)cc2)n1 | 2.8 µM (active)
38 | CN(C)c1nc(Nc2ccc(O)cc2)nc2ccccc12 | 9.7 µM (active)
39 | O=C(Nc1nc(-c2ccco2)cs1)c1cccnc1N1CCOCC1 | 1.6 µM (active)
40 | O=C1/C(=C/c2ccc([N+](=O)[O-])cc2)CS(=O)(=O)C/C1=C\c1ccc([N+](=O)[O-])cc1 | 0.1 µM (active)
41 | CCN1CCN(Cc2ccc(C(=O)Nc3ccc(C)c(Oc4ccc5c(c4)CC(=O)N5)c3)cc2C(F)(F)F)CC1 | 6.2 µM (active)
42 | CC(C)c1c2cc(-c3ccnc(N[C@H]4CC[C@H](NC5CCOCC5)CC4)n3)ccc2nn1C | 0.1 µM (active)
43 | CC(NC(=O)N(C)CC1CCOCC1)c1ccccc1C(F)(F)F (stereo not given) | 50 µM (inactive)
44 | Nc1ncnc2c1ncn2[C@@H]1CC[C@@H](O)[C@H]1O | 1.6 µM (active)
45 | CCN1CCN(C(=O)C2CCCN(c3nn4cc(-c5ccc(OC)cc5)nc4s3)C2)CC1 (stereo not given) | 12.8 µM (active)
46 | Cc1cc(F)ccc1N1CCC(N[C@@H]2CCOC[C@H]2OCC2CC2)CC1 | 15.6 µM (inactive)

Row | SMILES | CC50
47 | CCOC(=O)C(C)Oc1cccc2c(=O)n(CC(=O)Nc3ccc(OC)cc3)ccc12 (stereo not given) | 15.4 µM (inactive)
48 | CCc1nccn1[C@H]1CCCN(CCOc2ccc(OC)cc2)C1 | 4.1 µM (active)
49 | Cn1c(=O)n(-c2ccc(C(C)(C)C#N)cc2)c2c3cc(-c4cnc5ccccc5c4)ccc3ncc21 [DACTOLISIB TOSYLATE] | 0.1 µM (active)
50 | Cc1nc(Nc2n[nH]c3c2CN(C(=O)N[C@H](CN(C)C)c2ccccc2)C3(C)C)c2sccc2n1 [PF-03758309] | 0.4 µM (active)
51 | Cn1c(NC(=O)c2cccc3cc[nH]c23)nc2ccccc21 | 2.3 µM (active)
52 | COc1cccc2c1C(=O)c1c(O)c3c(c(O)c1C2=O)C[C@@](O)(C(C)=O)C[C@@H]3O[C@H]1C[C@H](N)[C@H](O)[C@H](C)O1 [DAUNORUBICIN HYDROCHLORIDE] | 0.3 µM (active)
53 | COc1ccc(C(N)=O)c(OCc2cccc3cccnc23)c1 | 0.3 µM (active)
54 | CCOc1ccc(OCCN2CCC[C@H](n3ccnc3CC)C2)cc1 | 8.4 µM (active)
55 | COc1ccc(C(=O)Nc2ccncc2)cc1S(=O)(=O)N(C)Cc1ccccc1 | 10.3 µM (active)
56 | Cn1ncc2cc(-c3cnc(N)c(Cl)c3N3CCC4(CCNC4=O)CC3)ccc21 | 5.7 µM (active)
57 | CCC1(N(C)C)CCN(c2nc(N)c3cc(OC)c(OC)cc3n2)CC1 | 11.2 µM (active)
58 | CNC(=O)c1cccc(-c2ccc3c(N4CCOC[C@@H]4C)nc(N4CCOC[C@@H]4C)nc3n2)c1 [VISTUSERTIB] | 0.2 µM (active)
59 | CN1C(=O)Cc2cc(S(=O)(=O)Nc3cccc4cccnc34)ccc21 | 6.9 µM (active)
60 | Cc1ccc(NC(=O)Nc2ccc(Cl)cc2)cc1NS(C)(=O)=O | 3.6 µM (active)
61 | CSc1ccc(NC(=O)Nc2ccc3c(c2)N(S(C)(=O)=O)CC3)cc1 | 8.1 µM (inactive)
62 | COCCN1CCCC(CNC2CCN(c3ccccc3Cl)CC2)C1 (stereo not given) | 5.2 µM (active)
63 | CCS(=O)(=O)Nc1ccc(Oc2ccc(F)cc2F)c(-c2cn(C)c(=O)c3[nH]ccc23)c1 [MIVEBRESIB] | 0.3 µM (active)
64 | N[C@@H](CNC(=O)COc1ccc(Cl)c2ccccc12)C1CC1 | 24.9 µM (inactive)
65 | N#Cc1cnc(Nc2cc(NC[C@H]3CNCCO3)c(C(F)(F)F)cn2)cn1 [SRA-737] | 7.2 µM (active)
66 | CC(=O)c1ccc(N2CCN(S(=O)(=O)c3ccc4onc(C(=O)N5CCCC5)c4c3)CC2)cc1 | 0.9 µM (active)
67 | CCN(CC)CCNC(=O)C1CCN(c2nn3cc(-c4ccc(F)cc4)nc3s2)CC1 | 2 µM (active)
68 | Oc1c(Cl)cc(Cl)cc1Sc1cc(Cl)cc(Cl)c1O [BITHIONOL] | 14.6 µM (inactive)
69 | CNc1nc(Nc2cccc(NC(C)=O)c2)nc2ccccc12 | 5.2 µM (active)

Row | SMILES | CC50
70 | O=S(=O)(c1c[nH]cn1)N1CCNC[C@H]1c1cccc(Cl)c1 | 50 µM (inactive)
71 | NCC1CCC(CNc2nc(NCc3ccccc3OC(F)(F)F)ncc2[N+](=O)[O-])CC1 (stereo not given) | 9.7 µM (active)
72 | CCc1nnsc1C(=O)Nc1cc(-c2cccs2)n[nH]1 | 4.8 µM (active)
73 | COc1ccc(-c2cn3nc(N4CCCC(C(=O)NCCN5CCCC5)C4)sc3n2)cc1 (stereo not given) | 5.1 µM (active)
74 | COc1ccc(OC)c(C(O)CN2CCN(c3cccc(C)c3C)CC2)c1 (stereo not given) | 9.9 µM (active)
75 | Cc1cc(C(=O)Nc2ccccn2)c2ccccc2n1 | 2.1 µM (active)
76 | Cc1cc(Nc2nc(N[C@@H](C)c3ccc(F)cc3)c(C#N)cc2F)n[nH]1 | 2.7 µM (active)
77 | CC(C)OCCCN[C@H]1CS(=O)(=O)C[C@@H]1S(=O)(=O)c1ccc(Cl)cc1 | 16 µM (active)
78 | Cc1ccc(C(=O)Nc2ccc(CN3CCN(C)CC3)c(C(F)(F)F)c2)cc1C#Cc1cnc2cccnn12 [PONATINIB] | 0.3 µM (active)
79 | CC1(C)C=Cc2c(ccc3c2OC[C@@H](c2ccc(O)cc2O)C3)O1 [GLABRIDIN] | 12.8 µM (active)
80 | COCC(=O)O[C@]1(CCN(C)CCCc2nc3ccccc3[nH]2)CCc2cc(F)ccc2[C@@H]1C(C)C [MIBEFRADIL DIHYDROCHLORIDE] | 3.1 µM (active)
81 | c1ccc2c(c1)OC[C@H](CNc1ncnc3sccc13)O2 | 1.8 µM (active)
82 | O=C(N[C@H]1CCCc2sccc21)c1cccc2c1OCO2 | 6.5 µM (active)
83 | CN1C[C@H](CNC(=O)OCc2ccccc2)C[C@@H]2c3cccc4c3c(cn4C)C[C@H]21 [METERGOLINE] | 6.3 µM (active)
84 | Nc1nc(N)c2nc(CNc3ccc(C(=O)N[C@@H](CCC(=O)O)C(=O)O)cc3)cnc2n1 [AMINOPTERIN] | 0.1 µM (active)
85 | COc1cc(/C=C/C(=O)CC(=O)/C=C/c2ccc(O)cc2)ccc1O | 11.5 µM (active)
86 | Cn1c(N2CCN(Cc3ccccc3)CC2)nc2c1c(=O)n(Cc1ccccc1)c(=O)n2C | 13.4 µM (inactive)
87 | COc1cccc2c(NCc3ccccc3)nc(-n3c(N)nc4ccccc43)nc12 | 9.6 µM (active)
88 | CNc1nc(N2CCN(C)CC2)nc2ccccc12 | 5.5 µM (active)
89 | Cc1nc(Nc2cnn(C3CCNCC3)c2)nc2c1N(C)C(=O)c1cc3ccccc3cc1N2C | 4.5 µM (active)
90 | O=c1cnnc(NCc2ccccc2)n1Cc1ccccc1 | 4.5 µM (active)
